*1 amine or outer side, *2 acyl side, *3 side chain or, on linkers, in order; H or OH if unused. Where a SMILES comes first, the peptide text is derived from it. Side-chain parts run from the residue outwards. [ ]: non-standard residue; d: D form. The star is where a group is joined. Isobutyryl(2-(3-CN-5-F-Ph)) = CC(C)(C(=O)*)c1cc(F)cc(C#N)c1; C20 diacid = O=C(O)CCCCCCCCCCCCCCCCCCC(=O)*; γGlu = O=C(O)[C@H](CCC(=O)[*:2])N[*:1]; X80 = CC1CC(C(=O)*)(n2cccn2)CCO1; d(β3hD) = NC(CC(=O)O)CC(=O)O; AEEA = NCCOCCOCC(=O)O; Aib = CC(C)(N)C(=O)O; βAla = NCCC(=O)O
What was measured:
Type in all cases: cell-based
GLP-1 receptor [1] = target: T1, GLP-1 receptor (Homo sapiens, UniProt P43220); assay: HitHunter cAMP assay, GLP-1 receptor; conditions: for EC50: CHO cells stably expressing human GLP-1 receptor, cAMP accumulation, 30 min, read-out: EC50 GLP-1R; for Emax: CHO cells, cAMP, normalized to maximum signal from GLP-1 (high) and DMSO (low), read-out: Emax GLP-1R
T1 sequence (P43220 24-463): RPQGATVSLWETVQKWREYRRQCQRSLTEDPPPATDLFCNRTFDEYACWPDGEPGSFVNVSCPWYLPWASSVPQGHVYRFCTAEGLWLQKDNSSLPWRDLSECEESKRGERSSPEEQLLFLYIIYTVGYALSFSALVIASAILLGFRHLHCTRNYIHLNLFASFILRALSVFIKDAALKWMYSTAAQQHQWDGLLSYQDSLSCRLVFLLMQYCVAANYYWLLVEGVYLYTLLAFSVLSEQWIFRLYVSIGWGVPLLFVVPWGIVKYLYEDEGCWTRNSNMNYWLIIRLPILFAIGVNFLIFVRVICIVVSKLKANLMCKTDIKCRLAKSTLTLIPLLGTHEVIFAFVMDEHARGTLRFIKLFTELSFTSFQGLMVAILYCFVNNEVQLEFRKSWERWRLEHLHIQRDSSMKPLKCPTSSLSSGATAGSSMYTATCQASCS

GIP receptor [2] = target: T2, GIP receptor (Homo sapiens, UniProt P48546); assay: HitHunter cAMP assay, GIP receptor; conditions: for EC50: CHO cells stably expressing GIP receptor, cAMP accumulation, 30 min, read-out: EC50 GIP-1R; for Emax: CHO cells, cAMP, normalized to maximum signal from GIP (high) and DMSO (low), read-out: Emax GIP-1R
T2 sequence (P48546 22-466): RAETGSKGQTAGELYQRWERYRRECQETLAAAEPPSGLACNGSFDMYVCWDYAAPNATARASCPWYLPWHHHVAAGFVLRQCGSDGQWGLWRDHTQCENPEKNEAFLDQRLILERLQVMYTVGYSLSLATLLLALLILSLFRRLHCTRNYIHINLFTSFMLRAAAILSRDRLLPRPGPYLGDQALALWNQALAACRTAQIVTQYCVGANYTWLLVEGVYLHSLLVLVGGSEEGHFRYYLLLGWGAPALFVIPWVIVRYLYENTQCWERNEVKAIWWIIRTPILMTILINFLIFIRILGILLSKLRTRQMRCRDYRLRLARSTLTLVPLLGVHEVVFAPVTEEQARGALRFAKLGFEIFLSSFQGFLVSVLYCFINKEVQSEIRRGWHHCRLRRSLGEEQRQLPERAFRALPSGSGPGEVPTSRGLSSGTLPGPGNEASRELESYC

GIP receptor [3] = target: T2, GIP receptor; assay: PathHunter β-arrestin assay, GIP receptor; parameters: host or cells: PathHunter CHO-K1 GIPR β-Arrestin Cell Line; conditions: β-arrestin-2 recruitment, PathHunter CHO-K1 GIPR β-Arrestin Cell Line, 90 min at 37° C.; normalized to GIP; read-out: GIPR β Arrestin EC50
GLP-1 receptor [4] = target: T1, GLP-1 receptor; assay: PathHunter β-arrestin assay, GLP-1 receptor; parameters: host or cells: PathHunter CHO-K1 GLP1R β-Arrestin Cell Line; conditions: β-arrestin-2 recruitment, PathHunter CHO-K1 GLP1R β-Arrestin Cell Line, 90 min at 37° C.; normalized to GLP-1; read-out: GLP-1R β Arrestin EC50

SMILES	EC50 (GLP-1 receptor [1]) [nM]	Emax (GLP-1 receptor [1]) [%]	EC50 (GIP receptor [2]) [nM]	Emax (GIP receptor [2]) [%]	EC50 (GIP receptor [3]) [nM]	EC50 (GLP-1 receptor [4]) [nM]
CC[C@H](C)[C@H](NC(=O)[C@H](CO)NC(=O)[C@H](Cc1ccc(O)cc1)NC(=O)[C@H](CC(=O)O)NC(=O)[C@H](CO)NC(=O)[C@@H](NC(=O)[C@H](Cc1ccccc1)NC(=O)[C@@H](NC(=O)CNC(=O)[C@H](CCC(=O)O)NC(=O)CCNC(=O)[C@]1(c2ccccc2)CNC(=O)C1)[C@@H](C)O)[C@@H](C)O)C(=O)N[C@@H](Cc1ccc(O)cc1)C(=O)N[C@@H](CC(C)C)C(=O)N[C@@H](CC(=O)O)C(=O)N[C@@H](CCCCN)C(=O)N[C@@H](CCC(N)=O)C(=O)N[C@@H](C)C(=O)N[C@@H](C)C(=O)NC(C)(C)C(=O)N[C@@H](CCC(=O)O)C(=O)N[C@@H](Cc1ccccc1)C(=O)N[C@H](C(=O)N[C@@H](CC(N)=O)C(=O)N[C@@H](Cc1c[nH]c2ccccc12)C(=O)N[C@@H](CC(C)C)C(=O)N[C@@H](CC(C)C)C(=O)N[C@@H](C)C(=O)NCC(=O)NCC(=O)N1CCC[C@H]1C(=O)N[C@@H](CO)C(=O)N[C@@H](CO)C(=O)NCC(=O)N[C@@H](C)C(=O)N1CCC[C@H]1C(=O)N1CCC[C@H]1C(=O)N1CCC[C@H]1C(=O)N[C@@H](CO)C(=O)N[C@@H](CCCCNC(=O)COCCOCCNC(=O)COCCOCCNC(=O)CC[C@H](NC(=O)CCCCCCCCCCCCCCCCCCC(=O)O)C(=O)O)C(N)=O)C(C)C (single isomer, unassigned) [Compound 130]	1 to 10	107	1 to 10	106	> 1000	> 1000
CC[C@H](C)[C@H](NC(=O)[C@H](CO)NC(=O)[C@H](Cc1ccc(O)cc1)NC(=O)[C@H](CC(=O)O)NC(=O)[C@H](CO)NC(=O)[C@@H](NC(=O)[C@H](Cc1ccccc1)NC(=O)[C@@H](NC(=O)CNC(=O)[C@H](CCC(=O)O)NC(=O)CCNC(=O)C1(n2cccn2)CCOC(C)C1)[C@@H](C)O)[C@@H](C)O)C(=O)N[C@@H](Cc1ccc(O)cc1)C(=O)N[C@@H](CC(C)C)C(=O)N[C@@H](CC(=O)O)C(=O)N[C@@H](CCCCN)C(=O)N[C@@H](CCC(N)=O)C(=O)N[C@@H](C)C(=O)N[C@@H](C)C(=O)NC(C)(C)C(=O)N[C@@H](CCC(=O)O)C(=O)N[C@@H](Cc1ccccc1)C(=O)N[C@H](C(=O)N[C@@H](CC(N)=O)C(=O)N[C@@H](Cc1c[nH]c2ccccc12)C(=O)N[C@@H](CC(C)C)C(=O)N[C@@H](CC(C)C)C(=O)N[C@@H](C)C(=O)NCC(=O)NCC(=O)N1CCC[C@H]1C(=O)N[C@@H](CO)C(=O)N[C@@H](CO)C(=O)NCC(=O)N[C@@H](C)C(=O)N1CCC[C@H]1C(=O)N1CCC[C@H]1C(=O)N1CCC[C@H]1C(=O)N[C@@H](CO)C(=O)N[C@@H](CCCCNC(=O)COCCOCCNC(=O)COCCOCCNC(=O)CC[C@H](NC(=O)CCCCCCCCCCCCCCCCCCC(=O)O)C(=O)O)C(N)=O)C(C)C (stereo partly drawn) [Compound 101]	1 to 10	93	10 to 100	96	> 1000	> 1000
CC[C@H](C)[C@H](NC(=O)[C@H](CO)NC(=O)[C@H](Cc1ccc(O)cc1)NC(=O)[C@H](CC(=O)O)NC(=O)[C@H](CO)NC(=O)[C@@H](NC(=O)[C@H](Cc1ccccc1)NC(=O)[C@@H](NC(=O)CNC(=O)[C@H](CCC(=O)O)NC(=O)CCNC(=O)C(C)(C)c1cc(F)cc(C#N)c1)[C@@H](C)O)[C@@H](C)O)C(=O)N[C@@H](Cc1ccc(O)cc1)C(=O)N[C@@H](CC(C)C)C(=O)N[C@@H](CC(=O)O)C(=O)N[C@@H](CCCCN)C(=O)N[C@@H](CCC(N)=O)C(=O)N[C@@H](C)C(=O)N[C@@H](C)C(=O)NC(C)(C)C(=O)N[C@@H](CCC(=O)O)C(=O)N[C@@H](Cc1ccccc1)C(=O)N[C@H](C(=O)N[C@@H](CCCCNC(=O)COCCOCCNC(=O)COCCOCCNC(=O)CC[C@H](NC(=O)CCCCCCCCCCCCCCCCCCC(=O)O)C(=O)O)C(=O)N[C@@H](Cc1c[nH]c2ccccc12)C(=O)N[C@@H](CC(C)C)C(=O)N[C@@H](CC(C)C)C(=O)N[C@@H](C)C(=O)NCC(=O)NCC(=O)N1CCC[C@H]1C(=O)N[C@@H](CO)C(=O)N[C@@H](CO)C(=O)NCC(=O)N[C@@H](C)C(=O)N1CCC[C@H]1C(=O)N1CCC[C@H]1C(=O)N1CCC[C@H]1C(=O)N[C@@H](CO)C(N)=O)C(C)C [Compound 103] ({Isobutyryl(2-(3-CN-5-F-Ph))-βAla}-EGTFTSDYSIYLDKQAA[Aib]EFVK([AEEA-AEEA-γGlu-C20 diacid])WLLAGGPSSGAPPPS-NH2)	0.1 to 1	89	10 to 100	96	> 1000	> 1000
CC[C@H](C)[C@H](NC(=O)[C@H](CC(C)C)NC(=O)[C@H](Cc1c[nH]c2ccccc12)NC(=O)[C@H](CCC(N)=O)NC(=O)[C@@H](NC(=O)[C@H](Cc1ccccc1)NC(=O)[C@H](C)NC(=O)[C@H](CCCCNC(=O)COCCOCCNC(=O)COCCOCCNC(=O)CC[C@H](NC(=O)CCCCCCCCCCCCCCCCCCC(=O)O)C(=O)O)NC(=O)[C@H](CCC(N)=O)NC(=O)[C@H](C)NC(=O)[C@@H](NC(=O)[C@H](CCCCN)NC(=O)[C@H](CC(=O)O)NC(=O)[C@H](CC(C)C)NC(=O)C(C)(C)NC(=O)[C@@H](NC(=O)[C@H](CO)NC(=O)[C@H](Cc1ccc(O)cc1)NC(=O)[C@H](CC(=O)O)NC(=O)[C@H](CO)NC(=O)[C@@H](NC(=O)[C@H](Cc1ccccc1)NC(=O)[C@@H](NC(=O)CNC(=O)C[C@@H](CC(=O)O)NC(=O)CCNC(=O)C(C)(C)c1cc(F)cc(C#N)c1)[C@@H](C)O)[C@@H](C)O)[C@@H](C)CC)[C@@H](C)CC)C(C)C)C(=O)N[C@@H](C)C(=O)NCC(=O)NCC(=O)N1CCC[C@H]1C(=O)N[C@@H](CO)C(=O)N[C@@H](CO)C(=O)NCC(=O)N[C@@H](C)C(=O)N1CCC[C@H]1C(=O)N1CCC[C@H]1C(=O)N1CCC[C@H]1C(=O)N[C@@H](CO)C(N)=O [Compound 104] ({Isobutyryl(2-(3-CN-5-F-Ph))-βAla}-[d(β3hD)]GTFTSDYSI[Aib]LDKIAQK([AEEA-AEEA-γGlu-C20 diacid])AFVQWLIAGGPSSGAPPPS-NH2)	100 to 1000	60	100 to 1000	66	> 1000	> 1000
CC[C@H](C)[C@H](NC(=O)[C@H](CC(C)C)NC(=O)[C@H](Cc1c[nH]c2ccccc12)NC(=O)[C@H](CCC(N)=O)NC(=O)[C@@H](NC(=O)[C@H](Cc1ccccc1)NC(=O)[C@H](C)NC(=O)[C@H](CCCCNC(=O)COCCOCCNC(=O)COCCOCCNC(=O)CC[C@H](NC(=O)CCCCCCCCCCCCCCCCCCC(=O)O)C(=O)O)NC(=O)[C@H](CCC(N)=O)NC(=O)[C@H](C)NC(=O)[C@@H](NC(=O)[C@H](CCCCN)NC(=O)[C@H](CC(=O)O)NC(=O)[C@H](CC(C)C)NC(=O)C(C)(C)NC(=O)[C@@H](NC(=O)[C@H](CO)NC(=O)[C@H](Cc1ccc(O)cc1)NC(=O)[C@H](CC(=O)O)NC(=O)[C@H](CO)NC(=O)[C@@H](NC(=O)[C@H](Cc1ccccc1)NC(=O)[C@@H](NC(=O)CNC(=O)[C@H](CCC(=O)O)NC(=O)CCNC(=O)C1(n2cccn2)CCOC(C)C1)[C@@H](C)O)[C@@H](C)O)[C@@H](C)CC)[C@@H](C)CC)C(C)C)C(=O)N[C@@H](C)C(=O)NCC(=O)NCC(=O)N1CCC[C@H]1C(=O)N[C@@H](CO)C(=O)N[C@@H](CO)C(=O)NCC(=O)N[C@@H](C)C(=O)N1CCC[C@H]1C(=O)N1CCC[C@H]1C(=O)N1CCC[C@H]1C(=O)N[C@@H](CO)C(N)=O (stereo partly drawn) [Compound 105] ({X80-βAla}-EGTFTSDYSI[Aib]LDKIAQK([AEEA-AEEA-γGlu-C20 diacid])AFVQWLIAGGPSSGAPPPS-NH2)	0.1 to 1	95	1 to 10	112	> 1000	> 1000
